Experimental data reported in patent publication US11944662B2, “Methods and compositions for preventing or treating ophthalmic conditions” (Stealth BioTherapeutics Inc., priority 2009, dated 2024).
Read-outs that look alike come from different tables or passages of the source. Where a SMILES comes first, the peptide text is derived from it. Where no end group is shown, it is not given here. [ ]: non-standard residue; d: D form. Dmt = Cc1cc(O)cc(C)c1C[C@H](N)C(=O)O

Assays:
HRECs = assay: Survival of HRECs in high glucose, Annexin V/PI flow cytometry; assay type: cell-based, human; conditions: 24 hours after treatment
Experimental: FIGS. 1A and 1B show the effects of different concentrations of SS-31 (10 nM, 100 nM, 1 μM and 10 μM) used as co-treatment with 30 mM glucose (HG). […] FIG. 1B is a graphic representation of the survival ratio for HRECs.
See generally, Li B, Tang S B, Zhang G, Chen J H, Li B J. Culture and characterization of human retinal capillary endothelial cell. Chin Ophthal Res 2005; 23: 20-2; Premanand C, Rema M, Sameer M Z, Sujatha M, Balasubramanyam M. Effect of curcumin on proliferation of human retinal endothelial cells under in vitro conditions. Invest Ophthalmol Vis Sci 2006; 47: 2179-84.
Briefly, HREC cells were divided into three groups: a normal control group; a group administered 30 mM glucose; and a group administered 30 mM glucose+SS-31. Survival of HRECs in high glucose co-treated with different concentrations of SS-31 (10 nM, 100 nM, 1 μM, 10 μM) was measured using an Annexin V+PI assay and flow cytometry. See generally, Koopman, G., Reutelingsperger, C. P., Kuijten, G. A. M., Keehnen, R. M. J., Pals, S. T., and van Oers, M. H. J. 1994. Annexin V for flow cytometric detection of phosphatidylserine expression on B cells undergoing apoptosis. Blood 84: 1415; Homburg, C. H., de Haas, M., von dem Borne, A. E., Verhoeven, A. J., Reutelingsperger, C. P., and Roos, D. 1995. Human neutrophils lose their surface Fc gamma Rill and acquire Annexin V binding sites during apoptosis in vitro. Blood 85: 532; Vermes, I., Haanen, C., Steffens-Nakken, H., and Reutelingsperger, C. 1995. A novel assay for apoptosis-flow cytometric detection of phosphatidylserine expression on early apoptotic cells using fluorescein labelled Annexin V. J. Immunol. Meth. 184: 39; Fadok, V. A., Voelker, D. R., Campbell, P. A., Cohen, J. J., Bratton, D. L., and Henson, P. M. 1992. Exposure of phosphatidylserine on the surface of apoptotic lymphocytes triggers specific recognition and removal by macrophages. J. Immunol. 148: 2207.
The survival of HRECs in high glucose co-treated with SS-31 was tested at 24 h and 48 h.

[1] = system: trabecular meshwork cells from glaucoma patients (GTM)
Experimental: (§1) To assess whether SS-31 had cytotoxic effects of HTM or GTM cells, various concentrations of SS-31 were administered to cells and the cytotoxicity was measured using an LDH assay. A LDH cytotoxicity assay is a colorimetric method of assaying cellular cytotoxicity. The assay quantitatively measures the stable, cytosolic, lactate dehydrogenase (LDH) enzyme, which is released from damaged cells. The released LDH is measured with a coupled enzymatic reaction that results in the conversion of a tetrazolium salt (iodonitrotetrazolium (INT)) into a red color formazan by diaphorase. […] See generally, Haslam, G. et al. (2005) Anal. Biochem. 336: 187; Tarnawski, A. (2005) Biochem. Biophys. Res. Comm. 333: 207; Round, J. L et al. (2005) J. Exp. Med. 201: 419; Bose, C. et al. (2005) Am. J. Physiol. Gastr. L. 289: G926; Chen, A. and Xu, J. (2005) Am. J. Physiol. Gastr. L. 288: G447. The LDH activity is determined as NADH oxidation or INT reduction over a defined time period.

[2] = system: trabecular meshwork cells from non-diseased individuals (HTM)
Experimental: as §1

GTM cells [3] = conditions: n=3
From the text: (§2) FIG. 37 is a graph showing the fluorescence intensity of ROS of GTM and HTM cells in control and SS-31-treated groups, as measured using FACS analysis.

HTM cells [4] = conditions: n=4
From the text: as §2

GTM cells [5] = conditions: n=4
From the text: (§4) The effects of SS-31 at mitigating acute oxidative injury in GTM and HTM cells was investigated.

HTM cells [6] = conditions: n=4; remark: listed apart in the source
From the text: as §4

[7] = system: primary human retinal pigment epithelial (RPE) cells; conditions: different concentrations, 24 h
Experimental: Primary cultured human RPE cells were incubated with different concentrations of SS-31 alone for a period of 24 h, and cell viability was determined by a MTT assay (FIG. 22).

lenses of diabetic rats [8] = assay: Cataract formation in lenses, HFD/STZ diabetic rat model; assay type: in vivo, Sprague-Dawley rat; conditions: for Percentage of opacity (%) / Percentage of severe opacity (%) / Turbidity degree ++++ (count) / Turbidity degree +++ (count) / Turbidity degree ++ (count) / Turbidity degree + (count) / Turbidity degree − (count): HFD/STZ rat model; for Turbidity degree ++++ (count): ++++: severely opaque; for Turbidity degree +++ (count): +++: moderately opaque; for Turbidity degree ++ (count): ++: opaque; for Turbidity degree + (count): +: mildly opaque; for Turbidity degree − (count): −: transparent
Experimental: The example describes the results of such experiments.
(§3) A rat model of diabetes was established by combination of 6-week HFD and low dose of STZ (30 mg/kg) injection or a single high dose of STZ (65 mg/kg) in SD rats. See generally, K. Srinivasan, B. Viswanad, Lydia Asrat, C. L. Kaul and P. Ramarao, Combination of high-fat diet-fed and low-dose streptozotocin-treated rat: A model for type 2 diabetes and pharmacological screening, Pharmacological Research, 52(4): 313-320, 2005. Rats of the same batch fed with normal chow (NRC) were used as a control.

lenses of diabetic rats [9] = assay: Cataract formation in lenses, STZ diabetic rat model; assay type: in vivo, Sprague-Dawley rat; conditions: 10 mg (Table 9: 10 mg/kg s.c.)
Experimental: as §3

[10] = system: inner blood-retinal barrier; assay: Inner blood-retinal barrier function, Evans blue extravasation, diabetic rats; assay type: in vivo, Sprague-Dawley rat; conditions: compared to rats on a HFD not administered SS-20 or SS-31
From the text: FIGS. 10A-10B is a series of charts showing the integrity of the blood-retinal barrier of normal rats (NRC), diabetic rats, and diabetic rats treated with SS-20 or SS-31, as analyzed by Evans blue extravasation. (10A) diabetes induced by STZ; (10B) diabetes induced by HFD/STZ.
The effect of the aromatic-cationic peptides on the inner blood-retinal barrier function in the SD rat model was investigated.

Cc1cc(O)cc(C)c1C[C@H](NC(=O)[C@H](N)CCCNC(=N)N)C(=O)N[C@@H](CCCCN)C(=O)N[C@@H](Cc1ccccc1)C(N)=O [SS-31, D-Arg-2′,6′-Dmt-Lys-Phe-NH2] (H-[dR][Dmt]KF-NH2)
survival ratios for HRECs (Q3) (HRECs; 30 mM glucose + SS-31 10 nM): 84.3%
survival ratios for HRECs (Q3) (HRECs; 30 mM glucose + SS-31 100 nM): 90.7%
survival ratios for HRECs (Q3) (HRECs; 30 mM glucose + SS-31 1 μM): 92.8%
survival ratios for HRECs (Q3) (HRECs; 30 mM glucose + SS-31 10 μM): 94.3%
cytotoxicity ([1]; at 10^−3 M): no cytotoxicity
viability (LDH cytotoxicity assay) ([1]; various concentrations): does not affect the viability
cytotoxicity ([2]; at 10^−3 M): no cytotoxicity
viability (LDH cytotoxicity assay) ([2]; various concentrations): does not affect the viability
percentage of intracellular ROS production compared to GTM control (GTM cells [3]; H2O2 + SS-31 10^−6 M): 84.5±8.75%
percentage of intracellular ROS production compared to GTM control (GTM cells [3]; H2O2 + SS-31 10^−7 M): 102.0±5.69%
percentage of intracellular ROS production compared to GTM control (GTM cells [3]; H2O2 + SS-31 10^−8 M): 133.0±5.17%
percentage of intracellular ROS production, HTM groups (HTM cells [4]; H2O2 + SS-31 10^−6 M): 79±2.39%
percentage of intracellular ROS production, HTM groups (HTM cells [4]; H2O2 + SS-31 10^−7 M): 91.8±3.49%
percentage of intracellular ROS production, HTM groups (HTM cells [4]; H2O2 + SS-31 10^−8 M): 129.0±8.24%
percentage of fluorescence intensity of TMRM compared to GTM control (GTM cells [5]; H2O2 + SS-31 10^−6 M): 56.2±4.04%
percentage of fluorescence intensity of TMRM compared to GTM control (GTM cells [5]; H2O2 + SS-31 10^−7 M): 50.3±4.46%
percentage of fluorescence intensity of TMRM compared to GTM control (GTM cells [5]; H2O2 + SS-31 10^−8 M): 47.5±2.82%
percentage of fluorescence intensity of TMRM, HTM groups (HTM cells [6]; H2O2 + SS-31 10^−6 M): 57.7±1.80%
percentage of fluorescence intensity of TMRM, HTM groups (HTM cells [6]; H2O2 + SS-31 10^−7 M): 50.6±3.06%
percentage of fluorescence intensity of TMRM, HTM groups (HTM cells [6]; H2O2 + SS-31 10^−8 M): 49.4±2.27%
cell viability (MTT assay), SS-31 alone [7]: did not adversely effect

F[dR]FK-NH2 [SS-20]
cataract formation in the lenses of diabetic rats (lenses of diabetic rats [8]; HFD/STZ and STZ models (FIGS. 6 and 7, Tables 11 and 12)): prevention or reversal of cataract formation
Percentage of opacity (%) (lenses of diabetic rats [8]; 3 mg (Table 7: 3 mg/kg s.c.)): 75.0%
Percentage of severe opacity (%) (lenses of diabetic rats [8]; 3 mg (Table 7: 3 mg/kg s.c.)): 25.0%
Turbidity degree ++++ (count) (lenses of diabetic rats [8]; 3 mg (Table 7: 3 mg/kg s.c.)): 1
Turbidity degree +++ (count) (lenses of diabetic rats [8]; 3 mg (Table 7: 3 mg/kg s.c.)): 0
Turbidity degree ++ (count) (lenses of diabetic rats [8]; 3 mg (Table 7: 3 mg/kg s.c.)): 1
Turbidity degree + (count) (lenses of diabetic rats [8]; 3 mg (Table 7: 3 mg/kg s.c.)): 1
Turbidity degree − (count) (lenses of diabetic rats [8]; 3 mg (Table 7: 3 mg/kg s.c.)): 1
Percentage of opacity (%) (lenses of diabetic rats [8]; 10 mg (Table 7: 10 mg/kg s.c.)): 75.0%
Percentage of severe opacity (%) (lenses of diabetic rats [8]; 10 mg (Table 7: 10 mg/kg s.c.)): 0%
Turbidity degree ++++ (count) (lenses of diabetic rats [8]; 10 mg (Table 7: 10 mg/kg s.c.)): 0
Turbidity degree +++ (count) (lenses of diabetic rats [8]; 10 mg (Table 7: 10 mg/kg s.c.)): 0
Turbidity degree ++ (count) (lenses of diabetic rats [8]; 10 mg (Table 7: 10 mg/kg s.c.)): 1
Turbidity degree + (count) (lenses of diabetic rats [8]; 10 mg (Table 7: 10 mg/kg s.c.)): 2
Turbidity degree − (count) (lenses of diabetic rats [8]; 10 mg (Table 7: 10 mg/kg s.c.)): 1
Percentage of opacity (%) (lenses of diabetic rats [9]): 60.0%
Percentage of severe opacity (%) (lenses of diabetic rats [9]): 20.0%
Opacity degree ++++ (count) (lenses of diabetic rats [9]; ++++: severely opaque): 1
Opacity degree +++ (count) (lenses of diabetic rats [9]; +++: moderately opaque): 0
Opacity degree ++ (count) (lenses of diabetic rats [9]; ++: opaque): 2
Opacity degree + (count) (lenses of diabetic rats [9]; +: mildly opaque): 0
Opacity degree − (count) (lenses of diabetic rats [9]; −: transparent): 2
inner blood-retinal barrier function [10]: improved
